Holding throughout (type): biochemical
For experiment [1], the target named is human cathepsin S (CatS) (Homo sapiens (Human), UniProt P25774). The experiment in a line: CatS functional enzyme assay. As to conditions: for Selectivity Ki(hCatS)/Ki(hCatK): ratio Ki(hCatS)/Ki(hCatK); for Ki: read-out: hCatS, Ki. As for the experimental part:
Reference and test compounds were assayed for inhibitory potency (IC50) against human cathepsins using the following assay setups: Recombinant human cathepsins (CatS, CatK, CatL) were purchased from a Enzo Life Sciences. […] For CatS, the enzyme (0.0007 mU/well) was incubated with fluorogeninc substrate (Z-VVR-AMC, 5 μM) at RT for 10 min. For CatK the enzyme (0.00175 mU/well) was incubated with fluorogeninc substrate (Z-FR-AMC, 40 μM) at RT for 10 min. For CatL, the enzyme (0.000874 mU/well) was incubated with fluorogeninc substrate (Z-VVR-AMC, 40 μM) at RT for 10 min. Flourogenic substrate turnover was detected using a microplate reader (Synergy™ H4, BioTek). Ki values were calculated using the Cheng Prusoff equation (Cheng & Prosoff 1973).

The target of experiment [2] is human cathepsin K (CatK) (Homo sapiens (Human), UniProt P43235). Kind of experiment: CatK functional enzyme assay. To be noted: recombinant human CatK, substrate Z-FR-AMC 40 μM, pH 5.5; Ki by Cheng Prusoff equation; read-out: hCatK, Ki. As for the experimental part:
(§1) Reference and test compounds were assayed for inhibitory potency (IC50) against human cathepsins using the following assay setups:
(§2) Recombinant human cathepsins (CatS, CatK, CatL) were purchased from a Enzo Life Sciences. All assays were carried out in 96-well format using a buffer of 50 mM KH2PO4, 50 mM NaCl, 2 mM EDTA, 0.5 mM DTT and 1% Triton-X-100, pH 6.5 for Cathepsin S and a buffer of 50 mM NaOAc, 10 mM EDTA, 1 mM DTT and 0.01% Triton-X-100, pH 5.5 for CatK/L/B. For CatS, the enzyme (0.0007 mU/well) was incubated with fluorogeninc substrate (Z-VVR-AMC, 5 μM) at RT for 10 min. For CatK the enzyme (0.00175 mU/well) was incubated with fluorogeninc substrate (Z-FR-AMC, 40 μM) at RT for 10 min. For CatL, the enzyme (0.000874 mU/well) was incubated with fluorogeninc substrate (Z-VVR-AMC, 40 μM) at RT for 10 min. Flourogenic substrate turnover was detected using a microplate reader (Synergy™ H4, BioTek). Ki values were calculated using the Cheng Prusoff equation (Cheng & Prosoff 1973).

The target in experiment [3] is human cathepsin L (CatL) (Homo sapiens (Human), UniProt P07711). The experiment in a line: CatL functional enzyme assay. To be noted: read-out: hCatL, inhibition [%] at 31.6 μM. As for the experimental part: as §1, §2
The mark [4] stands for this setting: recombinant human CatS, substrate Z-VVR-AMC 5 μM, pH 6.5, Ki by Cheng Prusoff equation.

Where two headings read alike, the source gives them in different places.

Chain of human cathepsin S (CatS) (P25774 115-331): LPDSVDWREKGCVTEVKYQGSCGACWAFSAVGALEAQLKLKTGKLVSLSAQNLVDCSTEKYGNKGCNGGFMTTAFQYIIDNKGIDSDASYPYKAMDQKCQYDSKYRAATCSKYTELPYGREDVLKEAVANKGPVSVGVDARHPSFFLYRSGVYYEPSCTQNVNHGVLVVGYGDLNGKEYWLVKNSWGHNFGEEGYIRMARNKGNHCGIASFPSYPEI
Chain of human cathepsin L (CatL) (P07711 114-333): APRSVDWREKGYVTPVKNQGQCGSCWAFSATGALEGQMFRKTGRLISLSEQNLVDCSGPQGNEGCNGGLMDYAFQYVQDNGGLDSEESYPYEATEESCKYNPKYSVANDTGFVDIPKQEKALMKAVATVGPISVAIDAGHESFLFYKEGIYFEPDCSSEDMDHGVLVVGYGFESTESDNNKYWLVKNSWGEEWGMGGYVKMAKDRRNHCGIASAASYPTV
Chain of human cathepsin K (CatK) (P43235 115-329): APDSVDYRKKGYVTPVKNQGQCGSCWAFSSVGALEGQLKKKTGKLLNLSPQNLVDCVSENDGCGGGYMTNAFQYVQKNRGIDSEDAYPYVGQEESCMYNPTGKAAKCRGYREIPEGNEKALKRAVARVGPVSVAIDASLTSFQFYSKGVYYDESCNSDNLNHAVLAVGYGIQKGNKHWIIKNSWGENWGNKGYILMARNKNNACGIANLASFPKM

Regarding `Cc1ccc(-c2ccc(C(=O)N[C@H](C(=O)N3C[C@H](Cl)[C@H]4OCC(=O)[C@H]43)C3CCCCC3)s2)nn1` [Example 35, N-((S)-2-((3aS,6S,6aS)-6-chloro-3-oxotetrahydro-2H-furo[3,2-b]pyrrol-4(5H)-yl)-1-cyclohexyl-2-oxoethyl)-5-(6-methylpyridazin-3-yl)thiophene-2-carboxamide], the “Selectivity Ki(hCatS)/Ki(hCatK)” value in experiment [1] was 10.7. Also, the Ki in experiment [1] (setting [4]) worked out at 172 nM; in experiment [2] it was 16 nM. For the same molecule, the inhibition at 31.6 µM in experiment [3] was 23%.

Consider `O=C(N[C@H](C(=O)N1C[C@H](Cl)[C@H]2OCC(=O)[C@H]21)C1CCCCC1)c1ccc(-c2ncncc2F)s1` [Example 36, N-((S)-2-((3aS,6S,6aS)-6-chloro-3-oxotetrahydro-2H-furo[3,2-b]pyrrol-4(5H)-yl)-1-cyclohexyl-2-oxoethyl)-5-(5-fluoropyrimidin-4-yl)thiophene-2-carboxamide], for which the “Selectivity Ki(hCatS)/Ki(hCatK)” value in experiment [1] amounted to 21.3. Further, the inhibition constant (Ki) was 469 nM in experiment [1] (setting [4]) and 22 nM in experiment [2]. Further, in experiment [3], the inhibition at 31.6 µM is 9%.

Take `O=C(N[C@H](C(=O)N1C[C@H](Cl)[C@H]2OCC(=O)[C@H]21)C1CCCCC1)c1cc(F)c(-c2cncnc2)s1` [Example 37, N-((S)-2-((3aS,6S,6aS)-6-chloro-3-oxotetrahydro-2H-furo[3,2-b]pyrrol-4(5H)-yl)-1-cyclohexyl-2-oxoethyl)-4-fluoro-5-(pyrimidin-5-yl)thiophene-2-carboxamide]: the “Selectivity Ki(hCatS)/Ki(hCatK)” value in experiment [1] stood at 26.7. In addition, the Ki in experiment [1] is 401 nM; in experiment [2], 15 nM. The inhibition at 31.6 µM in experiment [3] was 29%.

As to `O=C(N[C@H](C(=O)N1C[C@H](Cl)[C@H]2OCC(=O)[C@H]21)C1CCCCC1)c1ccc(-c2ccc(F)nn2)s1` [Example 38, N-((S)-2-((3aS,6S,6aS)-6-chloro-3-oxotetrahydro-2H-furo[3,2-b]pyrrol-4(5H)-yl)-1-cyclohexyl-2-oxoethyl)-5-(6-fluoropyridazin-3-yl)thiophene-2-carboxamide], the “Selectivity Ki(hCatS)/Ki(hCatK)” value in experiment [1] was 10.7. The Ki in experiment [1] (setting [4]) was 213 nM; in experiment [2], 20 nM. Moreover, the inhibition at 31.6 µM in experiment [3] was determined as 30%.

Consider `N#Cc1cncc(-c2ccc(C(=O)N[C@H](C(=O)N3C[C@H](Cl)[C@H]4OCC(=O)[C@H]43)C3CCCCC3)s2)c1` [Example 39, N-((S)-2-((3aS,6S,6aS)-6-chloro-3-oxotetrahydro-2H-furo[3,2-b]pyrrol-4(5H)-yl)-1-cyclohexyl-2-oxoethyl)-5-(5-cyanopyridin-3-yl)thiophene-2-carboxamide], for which the “Selectivity Ki(hCatS)/Ki(hCatK)” value in experiment [1] turned out to be 11.8. Further, the figures for the Ki in experiment [1] (setting [4]) and in experiment [2] were 225 nM and 19 nM, respectively. The inhibition at 31.6 µM in experiment [3] was determined as 19%.

On to `O=C(N[C@H](C(=O)N1C[C@H](Cl)[C@H]2OCC(=O)[C@H]21)C1CCCCC1)c1cc(F)c(-c2ccnnc2)s1` [Example 40, N-((S)-2-((3aS,6S,6aS)-6-chloro-3-oxotetrahydro-2H-furo[3,2-b]pyrrol-4(5H)-yl)-1-cyclohexyl-2-oxoethyl)-4-fluoro-5-(pyridazin-4-yl)thiophene-2-carboxamide], for which the “Selectivity Ki(hCatS)/Ki(hCatK)” value in experiment [1] was 37.8. Besides, the Ki in experiment [1] (setting [4]) came to 453 nM; in experiment [2], 12 nM. The inhibition at 31.6 µM in experiment [3] came out at 39%.

For the molecule `Cc1ncc(-c2cnc(C(=O)N[C@H](C(=O)N3C[C@H](Cl)[C@H]4OCC(=O)[C@H]43)C3CCCCC3)s2)cn1` [Example 41, N-((S)-2-((3aS,6S,6aS)-6-chloro-3-oxotetrahydro-2H-furo[3,2-b]pyrrol-4(5H)-yl)-1-cyclohexyl-2-oxoethyl)-5-(2-methylpyrimidin-5-yl)thiazole-2-carboxamide], the inhibition constant (Ki) in experiment [1] (setting [4]) was 144 nM; in experiment [2], 26 nM. Besides, the inhibition at 31.6 µM in experiment [3] amounted to 25%.

For `Cc1ccc(-c2cnc(C(=O)N[C@H](C(=O)N3C[C@H](Cl)[C@H]4OCC(=O)[C@H]43)C3CCCCC3)s2)cn1` [Example 42, N-((S)-2-((3aS,6S,6aS)-6-chloro-3-oxotetrahydro-2H-furo[3,2-b]pyrrol-4(5H)-yl)-1-cyclohexyl-2-oxoethyl)-5-(6-methylpyridin-3-yl)thiazole-2-carboxamide], in experiment [1], the “Selectivity Ki(hCatS)/Ki(hCatK)” value worked out at 25.4. Also, the figures for the inhibitory constant (Ki) in experiment [1] (setting [4]) and in experiment [2] were 356 nM and 14 nM, respectively. Also, the inhibition at 31.6 µM in experiment [3] came to 18%.

In the case of `N#Cc1cncc(-c2cnc(C(=O)N[C@H](C(=O)N3C[C@H](Cl)[C@H]4OCC(=O)[C@H]43)C3CCCCC3)s2)c1` [Example 43, N-((S)-2-((3aS,6S,6aS)-6-chloro-3-oxotetrahydro-2H-furo[3,2-b]pyrrol-4(5H)-yl)-1-cyclohexyl-2-oxoethyl)-5-(5-cyanopyridin-3-yl)thiazole-2-carboxamide], the “Selectivity Ki(hCatS)/Ki(hCatK)” value in experiment [1] is given as 3.2. The inhibition constant (Ki) is 769 nM in experiment [1] (setting [4]) and 243 nM in experiment [2]. The inhibition at 31.6 µM in experiment [3] amounted to 16%.

As to `Cc1cnnc(-c2ccc(C(=O)N[C@H](C(=O)N3C[C@H](Cl)[C@H]4OCC(=O)[C@H]43)C3CCCCC3)s2)c1` [Example 44, N-((S)-2-((3aS,6S,6aS)-6-chloro-3-oxotetrahydro-2H-furo[3,2-b]pyrrol-4(5H)-yl)-1-cyclohexyl-2-oxoethyl)-5-(5-methylpyridazin-3-yl)thiophene-2-carboxamide], in experiment [1], the “Selectivity Ki(hCatS)/Ki(hCatK)” value was determined as 4.7. Moreover, the inhibition constant Ki in experiment [1] (setting [4]) turned out to be 70 nM; in experiment [2] it was 15 nM. Also, the inhibition at 31.6 µM in experiment [3] was determined as 33%.

Consider `O=C(N[C@H](C(=O)N1C[C@H](Cl)[C@H]2OCC(=O)[C@H]21)C1CCCCC1)c1ncc(-c2cccnc2)s1` [Example 45, N-((S)-2-((3aS,6S,6aS)-6-chloro-3-oxotetrahydro-2H-furo[3,2-b]pyrrol-4(5H)-yl)-1-cyclohexyl-2-oxoethyl)-5-(pyridin-3-yl)thiazole-2-carboxamide], for which the “Selectivity Ki(hCatS)/Ki(hCatK)” value in experiment [1] was 32.8. In addition, the Ki in experiment [1] (setting [4]) is 262 nM; in experiment [2], 8 nM. Further, the inhibition at 31.6 µM in experiment [3] worked out at 26%.

As to `O=C(N[C@H](C(=O)N1C[C@H](Cl)[C@H]2OCC(=O)[C@H]21)C1CCCCC1)c1ncc(-c2ccccn2)s1` [Example 46, N-((S)-2-((3aS,6S,6aS)-6-chloro-3-oxotetrahydro-2H-furo[3,2-b]pyrrol-4(5H)-yl)-1-cyclohexyl-2-oxoethyl)-5-(pyridin-2-yl)thiazole-2-carboxamide], the “Selectivity Ki(hCatS)/Ki(hCatK)” value in experiment [1] is listed as 45.9. Also, the Ki in experiment [1] (setting [4]) came to 413 nM; in experiment [2], 9 nM. Besides, the inhibition at 31.6 µM in experiment [3] came out at 6%.

As for `O=C(N[C@H](C(=O)N1C[C@H](Cl)[C@H]2OCC(=O)[C@H]21)C1CCCCC1)c1ncc(-c2cncc(F)c2)s1` [Example 47, N-((S)-2-((3aS,6S,6aS)-6-chloro-3-oxotetrahydro-2H-furo[3,2-b]pyrrol-4(5H)-yl)-1-cyclohexyl-2-oxoethyl)-5-(5-fluoropyridin-3-yl)thiazole-2-carboxamide], in experiment [1], the “Selectivity Ki(hCatS)/Ki(hCatK)” value turned out to be 11.1. For the same molecule, the values for the Ki in experiment [1] (setting [4]) and in experiment [2] were 221 nM and 20 nM, respectively. In experiment [3], the inhibition at 31.6 µM is 28%.

`O=C(N[C@H](C(=O)N1C[C@H](Cl)[C@H]2OCC(=O)[C@H]21)C1CCCCC1)c1ncc(-c2cnccn2)s1` [Example 48, N-((S)-2-((3aS,6S,6aS)-6-chloro-3-oxotetrahydro-2H-furo[3,2-b]pyrrol-4(5H)-yl)-1-cyclohexyl-2-oxoethyl)-5-(pyrazin-2-yl)thiazole-2-carboxamide]: in experiment [1], the “Selectivity Ki(hCatS)/Ki(hCatK)” value amounted to 17.3. For the same molecule, the Ki amounted to 242 nM in experiment [1] (setting [4]) and 14 nM in experiment [2]. In experiment [3], the inhibition at 31.6 µM turned out to be 7%.

For `O=C(N[C@H](C(=O)N1C[C@H](Cl)[C@H]2OCC(=O)[C@H]21)C1CCCCC1)c1ncc(-c2ccncc2)s1` [Example 49, N-((S)-2-((3aS,6S,6aS)-6-chloro-3-oxotetrahydro-2H-furo[3,2-b]pyrrol-4(5H)-yl)-1-cyclohexyl-2-oxoethyl)-5-(pyridin-4-yl)thiazole-2-carboxamide], the “Selectivity Ki(hCatS)/Ki(hCatK)” value in experiment [1] was 41.8. Moreover, the inhibitory constant (Ki) is 376 nM in experiment [1] (setting [4]) and 9 nM in experiment [2]. Also, the inhibition at 31.6 µM in experiment [3] was found to be 4%.

These data come from patent US9725459B2, “3-oxo-tetrahydro-furo[3,2-B]pyrrol-4(5H)-yl) derivatives I” (GRÜNENTHAL GMBH, priority 2014, dated 2017).
